Among the test systems are NCI-H226 lung; SK-MEL-2 melanoma; HCT-116 colon; MDA-MB-231 breast; CAKI-1 renal; SR leukemia; PC-3 prostate; NCI-H522 lung; HL-60(TB) leukemia; MOLT-4 leukemia.
Experiment in all cases: inhibition of tumour cell growth, NCI panel, 48 h

The record followed here is PubChem BioAssay (NCI).

Where “and” joins values, the source holds several entries; their conditions need not be identical. Equal entries are not always repeated.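 Following 48 hours of exposure in 96-well plates, responses at five concentrations were used to interpolate endpoints linearly. Abbreviation: GI50, concentration required for 50% inhibition of growth. Definition used: TGI = concentration required for complete inhibition of growth.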

Take `COc1ccc(/C=C(\C#N)n2nnc3c(F)cccc32)cc1`: the GI50 was 1.98 µM in the assay with NCI-H226 lung; 0.504 µM in the assay with SK-MEL-2 melanoma; 0.363 µM with HCT-116 colon; 0.551 µM in the assay on MDA-MB-231 breast; 0.122 µM with CAKI-1 renal; 0.161 µM in the assay with SR leukemia. Moreover, the GI50 in the assay on PC-3 prostate was 0.381 µM; with NCI-H522 lung it was 0.182 µM; in the assay on HL-60(TB) leukemia, 0.229 µM; with MOLT-4 leukemia it was 0.456 µM. For the same compound, the TGI in the assay with NCI-H226 lung was above 100 µM; in the assay with SK-MEL-2 melanoma, above 49.9 µM; in the assay with HCT-116 colon it was above 31.6 µM; in the assay on MDA-MB-231 breast, 3.68 µM; in the assay on CAKI-1 renal, above 100 µM; with SR leukemia it was above 100 µM. The TGI with PC-3 prostate is above 100 µM; in the assay with HL-60(TB) leukemia, 0.82 µM; with MOLT-4 leukemia, above 100 µM.
In the case of `C=CCN1CC(=O)N2[C@@H](Cc3ccc(O)cc3F)C(=O)N(Cc3cccc(N4CC(N5CCN(CC)CC5)C4)n3)C[C@@H]2N1C(=O)NCc1ccccc1`, the GI50 is 0.0461 µM in the assay with NCI-H226 lung; 0.0435 µM with SK-MEL-2 melanoma; 0.0325 µM in the assay on HCT-116 colon; 0.0216 µM in the assay with MDA-MB-231 breast; 0.0507 µM in the assay with CAKI-1 renal; 0.0292 µM in the assay on SR leukemia. Moreover, the GI50 is 0.0359 µM in the assay on PC-3 prostate, 0.0284 µM in the assay with NCI-H522 lung, 0.226 µM in the assay on HL-60(TB) leukemia and 0.0276 µM in the assay with MOLT-4 leukemia. For the same compound, the TGI was above 100 µM with NCI-H226 lung; 0.476 µM with SK-MEL-2 melanoma; above 100 µM in the assay with HCT-116 colon; 0.139 µM in the assay with MDA-MB-231 breast; 0.504 µM in the assay on CAKI-1 renal; 1.7 µM in the assay with SR leukemia. For the same compound, the TGI in the assay with PC-3 prostate is above 100 µM; in the assay with HL-60(TB) leukemia it was 26.5 µM.
Turning to `Cc1cc(N=Nc2ccccc2C)ccc1N`, the GI50 in the assay on NCI-H226 lung is 10.3 µM; in the assay with HCT-116 colon, 13.2 µM; in the assay with MDA-MB-231 breast, 12.7 µM; with CAKI-1 renal it was 7.38 µM; in the assay with SR leukemia it was 8.49 µM; with PC-3 prostate, 5.99 µM. Besides, the GI50 was 6.94 µM in the assay with NCI-H522 lung, 0.486 µM in the assay on HL-60(TB) leukemia and 0.967 µM in the assay on MOLT-4 leukemia. For the same compound, the TGI in the assay with NCI-H226 lung is 30.8 µM and 27.8 µM; in the assay with SK-MEL-2 melanoma it was 33.5 µM; in the assay on HCT-116 colon, 29.5 µM and 27.3 µM; in the assay with MDA-MB-231 breast it was 30.7 µM and 28.4 µM; with CAKI-1 renal, 46.5 µM and 28.7 µM; in the assay with SR leukemia, 52.1 µM and 61.6 µM. The TGI in the assay on PC-3 prostate is 26.8 µM and 91.5 µM; in the assay with NCI-H522 lung, 22.9 µM; in the assay on MOLT-4 leukemia it was above 100 µM.
For the compound `COC(=O)c1cncc(/C=C/c2c(C)cc(O)cc2C)c1`, the GI50 in the assay with NCI-H226 lung is above 12.7 µM; in the assay with SK-MEL-2 melanoma, 8.31 µM; with HCT-116 colon, 14.2 µM; in the assay on MDA-MB-231 breast it was 7.19 µM; in the assay with CAKI-1 renal it was above 16.2 µM; in the assay with SR leukemia, 2.67 µM. Besides, the GI50 was 12.2 µM in the assay with PC-3 prostate, 5.67 µM with NCI-H522 lung, 2.25 µM with HL-60(TB) leukemia and 4.19 µM in the assay with MOLT-4 leukemia. Also, the TGI with NCI-H226 lung was above 25 µM; with SK-MEL-2 melanoma it was 22.1 µM; in the assay with HCT-116 colon it was above 25 µM; in the assay with MDA-MB-231 breast, above 23 µM; with CAKI-1 renal it was above 25 µM; with SR leukemia it was above 25 µM. Further, the TGI in the assay on PC-3 prostate is above 25 µM; with NCI-H522 lung it was 17.1 µM; in the assay with HL-60(TB) leukemia, 5.96 µM; in the assay on MOLT-4 leukemia, above 20.1 µM.
As to `COc1ncnc(NS(=O)(=O)c2ccc(N=C3C(=O)N(CN4CCN(c5c(F)cc6c(=O)c(C(=O)O)cn(C7CC7)c6c5OC)CC4C)c4ccc(Br)cc43)cc2)c1OC` (stereo not drawn), the GI50 in the assay with NCI-H226 lung was 15.3 µM; in the assay on SK-MEL-2 melanoma it was 20.5 µM; in the assay on HCT-116 colon it was 9.96 µM; in the assay on MDA-MB-231 breast, 9.42 µM; in the assay with CAKI-1 renal, 6.21 µM; in the assay with SR leukemia it was 42.7 µM. The GI50 in the assay with PC-3 prostate was 6.76 µM; with NCI-H522 lung, 31 µM; in the assay with HL-60(TB) leukemia, 8.4 µM; in the assay with MOLT-4 leukemia, 18.3 µM. The TGI was above 50 µM in the assay on NCI-H226 lung; above 50 µM in the assay with SK-MEL-2 melanoma; above 50 µM in the assay with HCT-116 colon; 25.4 µM in the assay on MDA-MB-231 breast; above 50 µM in the assay on CAKI-1 renal; above 50 µM with SR leukemia. The TGI in the assay on PC-3 prostate is 29.4 µM; with NCI-H522 lung, above 50 µM; in the assay on HL-60(TB) leukemia, above 50 µM; in the assay with MOLT-4 leukemia it was above 50 µM.
On to `COC(=O)[C@H]1CCCN1C(=O)[C@H]1CCCN1C(=O)[C@@H](Cc1c[nH]c2ccccc12)NC(=S)Nc1cc(C(F)(F)F)cc(C(F)(F)F)c1`, for which the GI50 is 3.08 µM with NCI-H226 lung; 1.95 µM in the assay with SK-MEL-2 melanoma; 1.95 µM in the assay on HCT-116 colon; 1.68 µM in the assay with MDA-MB-231 breast; 2.1 µM in the assay on CAKI-1 renal; 2.53 µM in the assay with SR leukemia. Further, the GI50 in the assay on PC-3 prostate is 1.61 µM; with NCI-H522 lung it was 1.73 µM; with HL-60(TB) leukemia, 2.38 µM; with MOLT-4 leukemia, 2.38 µM. Also, the TGI in the assay on NCI-H226 lung stood at 11.7 µM; with SK-MEL-2 melanoma, 3.55 µM; in the assay with HCT-116 colon it was 3.77 µM; in the assay on MDA-MB-231 breast, 3.09 µM; with CAKI-1 renal it was 5.63 µM; in the assay with SR leukemia, 5.65 µM. In addition, the TGI in the assay on PC-3 prostate amounted to 3.04 µM; with NCI-H522 lung it was 3.51 µM; with HL-60(TB) leukemia, 6.03 µM; in the assay with MOLT-4 leukemia, 7.6 µM.
Regarding `COC1C(O)C(CO)OC(OC2C(O)COC(OC3C(C)OC(OC4C(O[C@H]5CC[C@@]6(C)C(CC=C7[C@H]6CCC68C(=O)O[C@@](C)(CCCC(C)C)[C@H]6[C@@H](OC(C)=O)C[C@@]78C)C5(C)C)OCC(OS(=O)(=O)O)C4O)C(OC4OCC(O)C(O)C4O)C3O)C2O)C1O` (stereo partly drawn), the GI50 with NCI-H226 lung is 0.192 µM; in the assay with SK-MEL-2 melanoma, 0.233 µM; in the assay with HCT-116 colon it was 0.0886 µM; in the assay on MDA-MB-231 breast it was 0.103 µM; in the assay on CAKI-1 renal it was 0.303 µM; in the assay with SR leukemia, 0.0628 µM. Further, the GI50 is 0.159 µM in the assay with PC-3 prostate, 0.194 µM with NCI-H522 lung and 0.153 µM with MOLT-4 leukemia. Moreover, the TGI in the assay on NCI-H226 lung amounted to 0.484 µM; with SK-MEL-2 melanoma, 2.47 µM; in the assay on HCT-116 colon, 0.229 µM; in the assay with MDA-MB-231 breast, 0.325 µM; with CAKI-1 renal, 0.922 µM; in the assay with SR leukemia, 0.238 µM. The TGI in the assay on PC-3 prostate stood at 1.87 µM; in the assay with NCI-H522 lung, 0.497 µM; in the assay with MOLT-4 leukemia, 0.368 µM.
